Target: ClpP1P2 (Mycobacterium tuberculosis (strain ATCC 25618 / H37Rv), UniProt P9WPC3+P9WPC5)
Assay: in vitro assay to detect presence of AMC directly proportional to the activity of ClpP1P2. GHDDI collaboration.
Assay type: functional

ClpP1P2, sequence (P9WPC5 whole entry): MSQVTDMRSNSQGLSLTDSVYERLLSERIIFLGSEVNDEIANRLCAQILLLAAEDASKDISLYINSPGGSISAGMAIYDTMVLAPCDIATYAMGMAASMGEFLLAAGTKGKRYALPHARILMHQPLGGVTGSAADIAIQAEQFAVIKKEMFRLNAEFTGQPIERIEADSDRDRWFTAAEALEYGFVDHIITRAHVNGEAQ
ClpP1P2, sequence (P9WPC3 whole entry): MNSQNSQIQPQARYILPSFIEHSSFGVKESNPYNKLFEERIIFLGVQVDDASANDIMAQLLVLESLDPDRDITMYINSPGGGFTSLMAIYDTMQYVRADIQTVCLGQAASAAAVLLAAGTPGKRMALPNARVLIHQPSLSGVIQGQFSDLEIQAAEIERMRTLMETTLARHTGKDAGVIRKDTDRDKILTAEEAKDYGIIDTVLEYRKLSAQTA

SMILES | IC50 [µM]
O=C(NCCOC1CCCC1)c1ccc(-c2ccco2)[nH]c1=O | > 100
NC(=O)CC1CCCN(c2cncc(SCc3ccccc3)n2)C1 (centres undefined) | > 100
COc1ccc(C2Nc3cc(Cl)ccc3C3=NCCN32)cc1CO (centres undefined) | > 100
CCc1nnc(CNC2CCCN(Cc3noc(C4CC4)n3)C2)o1 (centres undefined) | > 100
c1cnc2nc(N3CCCC3c3nnc4n3CCCCC4)ccc2n1 (centres undefined) | > 100
CCn1c(C)nnc1CN(C)C1CCN(CCS(=O)(=O)CC)C1 (centres undefined) | > 100
Cc1cc2nc(-c3ccccc3)cc(NCC3CCS(=O)(=O)C3)n2n1 (centres undefined) | > 100
CCN(CC)C(=O)CN1CCCC1c1nc(C)c2c(n1)N(C)C(=O)CC2 (centres undefined) | > 100
Cc1nccn1CCCNc1nccnc1C#N | > 100
Cn1cc(-c2ncc3c(c2C(=O)O)CCN(Cc2ccccn2)C3)cn1 | > 100
CNC(=O)C1CCCN1c1nc(C)c2ccccc2n1 (centres undefined) | > 100
Cc1nc(CN2CCOC(Cn3cccn3)C2)nc2ccccc12 (centres undefined) | > 100
CN(C)C(=O)CN1C[C@@H]2CC[C@H](C1)N(Cc1ccc(Cl)cc1Cl)C2 | > 100
COc1ccc2[nH]c(=O)c(CN(C)CCN3CCCC3)cc2c1 | > 100
Cc1ccc(C#N)c(N2CCC3(CCCN(C4CCOCC4)C3=O)C2)n1 (centres undefined) | > 100
CCS(=O)(=O)N1CCc2cc(C(=O)NC)c(NCC3CC3)nc2CC1 | > 100
CCCn1[nH]cc/c1=N\C(=O)CN1CCn2c(nnc2C2CC2)C1 | > 100
Cc1noc2ncc(C(=O)NCC3CCS(=O)(=O)C3)cc12 (centres undefined) | > 100
Cc1n[nH]c(C)c1-c1cc(-c2cc[nH]c2)nc(N)c1C#N | > 100
Cn1ccc2c(cnc3nc(-c4ccncc4)nn32)c1=O | > 100
COC(=O)c1cc(OC)ccc1NCC(=O)NCC(=O)N1CCCC1 | > 100
CN1CCCN(C(=O)c2cc(-c3cc[nH]n3)n3ccccc23)CC1 | > 100
Cn1cnc(-c2nc(C(=O)NCC3CCCO3)c3ccccn23)c1 (centres undefined) | > 100
CC(Cc1ccco1)NC(=O)Nc1ccc(N2CCCC2)nc1 (centres undefined) | > 100
O=C(Nc1cc(CCC2CCN(CCO)CC2)ccn1)c1ccccn1 | > 100

SMILES | IC50 [µM]
COCCNC(=O)c1cc(-c2cc[nH]n2)n2ccccc12 | > 100
CS(=O)(=O)NC1CCN(C(=O)NCc2ccccn2)CC1 | > 100
CCC(CNC(=O)Nc1cnn(CC)c1)N1CCc2ccccc2C1 (centres undefined) | > 100
O=C(NCCOC1CCCCC1)c1ccc(-c2ccco2)[nH]c1=O | > 100
CCn1cc(-c2cc(-c3cc(CC(=O)O)cs3)nc(N)c2C#N)c(C)n1 | > 100
COCCNc1ncc(-c2cccc(OC)c2)c(-c2nccn2C)n1 | > 100
Cc1nn(CCNc2ncnc3c2NC(=O)CN3)c(C)c1Cl | > 100
CC(C)Nc1nc2c(c(NC3CC3)n1)CN(C(=O)c1ccsc1)CC2 | > 100
Cc1cc(C)n(-c2cncc(NCCNC(=O)CC3CCCC3)n2)n1 | > 100
CCCc1nc(CNCC2CCCN2c2cccnn2)no1 (centres undefined) | > 100
COc1cc(CN2CCCCCC2c2cccs2)cc(OC)c1O (centres undefined) | 16.8
Cc1nc(-c2cc(C(=O)N3CCCN(C)CC3)c3ccccn23)cn1C | > 100
CC(C)n1c2ccccc2c2c1cc(C(=O)NCCO)n2C(=O)N(C)C | > 100
O=C(O)C1CN(c2cncc(Cc3ccccc3)n2)C1 | > 100
COc1c(C2CCCN2Cc2noc(C)n2)c(C)nn1C (centres undefined) | > 100
CCNC(=O)C1CCCN(c2ccc3ccc(F)cc3n2)C1 (centres undefined) | > 100
Cn1ccc(-c2cc(C(=O)N3CCC(C(N)=O)CC3)c3ccccn23)n1 | > 100
CCc1ncc2c(n1)CN(Cc1nnc(Cc3ccccc3)o1)CC2 | > 100
CCOCCCNCc1cc2c(C)cc(C)cc2n2c(=O)n(C)nc12 | > 100
COC(=O)[C@@H]1C[C@H](NC(=O)c2cc(=O)[nH]c3ccc(C)cc23)CN1C | > 100
COc1ccc(C2Nc3ccccc3C3=NCCCN32)cc1OC (centres undefined) | > 100
O=S1(=O)CCC(CNc2cc(-c3ccccc3)nc3ccnn23)C1 (centres undefined) | > 100
c1cc(-c2nc(CN3CCc4c(ncn4C4CC4)C3)cs2)cs1 | > 100
N#Cc1ccc(OC[C@]23COC[C@H]2CN(Cc2ccoc2)C3)nc1 | > 100
CCCn1cc(-c2cc(-c3c[nH]cn3)c(C#N)c(N)n2)c(C)n1 | > 100

SMILES | IC50 [µM]
Cc1cccc2nc(CN3CCCC3Cn3cccn3)cn12 (centres undefined) | > 100
Cc1ccoc1C(=O)NC1CCN(C(=O)Nc2ccccn2)CC1 | > 100
CC(C)c1nn(C)c(N(C)C)c1CNCC(O)c1cccc(F)c1 (centres undefined) | > 100
Cc1ccc2cc(CN(C)Cc3ccncn3)c(=O)[nH]c2c1 | > 100
CCc1nc(C2CCCN(C(=O)CC3CCOCC3)C2)no1 (centres undefined) | > 100
Cc1nc(-c2ccsc2)ccc1C(=O)NCCCN1CCOCC1 | > 100
COc1cccc2ccc(N3CCC(O)(C(=O)O)CC3)nc12 | > 100
CN(C)c1ncc(-c2cc(C(=O)NC(C)(C)CO)n(CC3CC3)c2)cn1 | > 100
COc1ccc2c(c1)C(=O)N(C)C1(CCN(C(=O)OC(C)(C)C)CC1)N2 | > 100
COc1ccc2nc(O)c(CN(C)Cc3ncc[nH]3)cc2c1 | > 100
CC(C)c1nn(C)c(Cl)c1CNCC(=O)N1CCN(C)CC1 | > 100
COCCn1cnc(-c2nc(C(=O)N3CCOCC3)c3ccccn23)c1 | > 100
Cc1ccc2cc(CN(C)Cc3ccccn3)c(=O)[nH]c2c1 | > 100
COc1cccc(-c2ccnc3nc(N4CCCCC4)[nH]c(=O)c23)c1 | > 100
COc1ccc(-c2cc3cccn(CC(=O)N4CCOCC4)c-3n2)cc1 | > 100
CNC(=O)CNC(=O)c1ccc(-c2scnc2C)nc1 | > 100
CC(Cc1ccco1)NC(=O)Nc1ccc(N(C)C)nc1 (centres undefined) | > 100
CNC(=O)c1cc2c(nc1NCC1CC1)CCN(CC1CC1)CC2 | > 100
Cc1ccc2nccc(C(=O)N3CCOC(CCN(C)C)C3)c2c1 (centres undefined) | > 100
Cc1nc(CN(C)C2CCN(Cc3cccc4c3OCCO4)C2)no1 (centres undefined) | > 100
CCOC(=O)CN1CCC2(CC1)CC(=O)c1ccc3ccccc3c1O2 | > 100
O=C(NCCC(=O)N1CCCc2ccccc21)c1c(F)cccc1F | > 100
Cc1cnn(CC2CCCN2C(=O)c2nccnc2N)c1 (centres undefined) | > 100
O=C1CNc2ncnc(NCc3cccs3)c2N1 | > 100
Cc1ccccc1-c1noc(CN2CCc3cncnc3C2)n1 | > 100

SMILES | IC50 [µM]
COc1ncc(NCc2cc(C#N)cs2)cc1C(N)=O | > 100
CCOC(=O)CN(CC(F)(F)F)C(=O)c1nc(C)n2ccccc12 | > 100
c1ccc2nc(N3CCOC(Cn4cncn4)C3)cnc2c1 (centres undefined) | > 100
CNC(=O)c1cc2c(nc1NCC(C)C)CCN(CCOC)CC2 | > 100
COCCN1CCc2cc(C(=O)NC(C)C)c(NCC(C)C)nc2CC1 | > 100
CCC1(CO)CCCN(c2ncccc2C#N)C1 (centres undefined) | > 100
O=C(O)C1(O)CCN(c2ccc3cccc(Cl)c3n2)CC1 | > 100
CN(C)S(=O)(=O)N1CC[C@]2(O)CCN(c3cc(C#N)ccn3)C[C@@H]2C1 | > 100
Cc1cc(C)n(CC2CCCN2CCCS(N)(=O)=O)n1 (centres undefined) | > 100
CN(Cc1cccc(C(N)=O)c1)CC1CCCN1c1cccnn1 (centres undefined) | > 100
CSc1ccc(CNc2n[nH]c(C)n2)cc1 | > 100
Cc1ccc(CNC(=O)NC(C)Cn2cccn2)cn1 (centres undefined) | > 100
Cc1c[nH]nc1C1CCCN1Cc1nccn1C (centres undefined) | > 100
Cc1nn(C)c(C)c1C1CCCN1C(=O)c1ccnc(N(C)C)c1 (centres undefined) | > 100
CC(C)Cc1cc(-c2cc(-c3ccc[nH]3)nc(N)c2C#N)n[nH]1 | > 100
N#Cc1c(C2CCOC2)cc(-c2ccc(N3CCCCC3)cc2)nc1N (centres undefined) | > 100
Cc1nc(CN2CCN(C(=O)c3sccc3C)CC2)cs1 | > 100
CCNC(=O)c1c2c(N3CCN(C)CC3)ncnc2n2ccccc12 | > 100
Cc1nc(C)n(CC2CCCN(CCC(=O)NC3CCCCC3)C2)n1 (centres undefined) | > 100
N#Cc1cccnc1N1CCC(C2CCCCCN2C(N)=O)CC1 (centres undefined) | > 100
COCc1nc(C(=O)N2CCCC(n3nc(C)cc3C)C2)cs1 (centres undefined) | > 100
CN(Cc1nnc(-c2ccco2)o1)C1CCCN(c2cccnn2)C1 (centres undefined) | > 100
Cc1nc(C)n(CC2CCCN2CCC(=O)N2CCCCC2)n1 (centres undefined) | > 100
O=C(c1c2c(N3CCOCC3)ncnc2n2ccccc12)N1CCCC1 | > 100
O=C(c1cncc(NCC2COc3ccccc3C2)n1)N1CCOCC1 (centres undefined) | > 100

SMILES | IC50 [µM]
Cc1cccc2c1OCCC2NCc1c(C)nn(C)c1N(C)C (centres undefined) | > 100
COc1cc2nc(NCCNS(C)(=O)=O)cc(C)c2cc1OC | > 100
CN(C)c1cc(C(=O)N2CCN(c3cc(C#N)ccn3)CC2)ccn1 | > 100
CCNCCOc1ccc(-c2cc(N)nc3[nH]ccc23)cc1 | > 100
CN1CCN(c2ncnc3c2c(C(=O)NC2CC2)c2ccccn23)CC1 | > 100
Nc1nccnc1C(=O)NC1CCN(Cc2ccccc2)C1 (centres undefined) | > 100
Cc1nc(C)n(CC2CCCN(CC(=O)N3CCCC3)C2)n1 (centres undefined) | > 100
CN(C)S(=O)(=O)N1CCC(c2n[nH]cc2-c2ccnc(N)c2)C1 (centres undefined) | > 100
CN(C)Cc1cc(C2CCCCN2S(=O)(=O)Cc2ccccc2)nn1C (centres undefined) | > 100
CN1CCc2c(sc3c2C(=O)NC(/C=C/c2ccccc2)N3)C1 (centres undefined) | > 100
CN1CCC(c2nccnc2Nc2cnccn2)CC1 | > 100
N#Cc1c(C2CC2)cc(-c2ccc(O)cc2)nc1N | > 100
CC(Cn1cccn1)NC(=O)Cc1csc(C(C)C)n1 (centres undefined) | > 100
CCc1n[nH]c(C2CN(CCCS(C)(=O)=O)CCO2)n1 (centres undefined) | > 100
CCN1CCc2c(sc3c2C(=O)NC(/C=C\c2ccccc2)N3)C1 (centres undefined) | > 100
O=C(c1cc(-c2cccnc2)[nH]n1)N1CCCC(c2cnccn2)C1 (centres undefined) | > 100
CC1CCC(NC(=O)CNC2(c3ccc(Br)cc3)CCOCC2)CC1 (centres undefined) | > 100
COc1cc2c(cc1CCC(=O)O)CCC2 | > 100
CN(C)c1cncc(-c2ccnc3c2ccn3C)n1 | > 100
CCN(CC)C(=O)c1ccc(CNc2cncc(-n3cccn3)n2)cc1 | > 100
Nc1cccc(-c2cccc3ccnn23)n1 | > 100
N#Cc1cccnc1N1CCC(OCc2ccccc2)CC1 | > 100
CNc1cncc(C2CCCN2C(=O)Cn2ccnc2C)n1 (centres undefined) | > 100
CS(=O)(=O)CCNC(=O)c1ccc(-c2ccco2)[nH]c1=O | > 100

— ChEMBL document CHEMBL3988442, “University of Dundee, Small-Polar-MMV Screening Library” (2021)
